Data on one compound can be found in US20100003223A1, “METHOD FOR THE PRODUCTION OF MULTICOMPONENT STEM CELLS, RELATIVE KITS AND USES IN THE MEDICAL FIELD” (Metapontium Agrobios S.R.L., priority 2006, published 2010).

One data set concerns adipocytes. The data set is described as follows: Determination of cell apoptosis (TACS Klenow In Situ Apoptotic Detection kit). The data set is classed as cell-based, human.
Data set [1] deals with late-phase adipogenic markers (leptin, GLUT-4). The data set is described as follows: Semiquantitative PCR / RT-PCR of adipogenic marker expression. The data set is classed as cell-based, human. As to conditions: preliminary results; FIG. 1: Ob gene (leptin), 175 μM. On the procedure: In order to amplify the cDNA obtained from the 5-Aza cultures treated, the following were used: • Eppendorf thermocycler Amplifier; • Specific primers designed with the help of the PrimerQuest program (http://biotools.idt.com) and Nucleotide database consultation (http://www.ncbi.nlm.nih.gov) and BLAST (Basic Local Alignment Search Tool) (http://www.ncbi.nlm.nih.gov/BLAST/).
The primers were purchased from New England Biolabs.
Amplification conditions: 95° C. for 10 minutes (initial denaturation), 30 cycles of 95° C. for 30 seconds (denaturation), 52° C. for 45 seconds (annealing), 72° C. for 45 seconds (extension), 72° C. for 10 minutes (final extension). The reaction mixture was prepared with 1 μl of cDNA, 1 μl of dNtPs Mix (10 mM), 1.25 μl of MgCl2 solution (25 mM), 1.25 μl of buffer 10×, 0.2 μl of Ampli Taq Gold (5U μl) (Applied Biosystem), 1 μl of specific sense primer and 1 μl of antisense primer (10 μM), […] of H2O RNase free in a final volume of 12.5 μl.
The expression of the late-phase adipogenic markers (leptin, GLUT-4), precocious-phase markers (PPAR-γ, CEBP-α) and markers typical of the undifferentiated embryonic state (OCT4, SOX2, NANOG, SSEA-1, alkaline phosphatase) was evaluated by means of PCR and RT-PCR.

The subject of a further data set is adipose cells. The data set is described as follows: Cell growth determination by BrdU incorporation. It counts as cell-based, human. The following applies: adipose cells treated.
The subject of another data set is embryoid bodies. The following applies: 1 μM, 6 hours; cited from earlier work.
Another data set concerns mature adipose cells. The data set is described as follows: Morphological analysis of treated cultures by optical (phase contrast) microscopy.

Procedure for mature adipose cells: Human pre-adipocytes and embryonic cell lines 3T3-L1 were sown at a density of 5×10^3 cells/cm^2 and cultivated in Petri plates in a proliferative medium (DMEM-F12, 10% Fetal Calf Serum (FCS), 1% antibiotic-fungizone (AF)) until the maximum cell confluence is reached. The differentiative induction is obtained by 48 hour treatment in specific medium consisting of DMEM, 10% Fetal Bovine Serum (FBS), 1 AF and specific differentiating factors (insulin, isobutylmethylxanthine, dexamethasone, indomethacin). The mature differentiated form (univacuolar phenotype) is reached after culture of 7-10 days in maintenance medium, free of adipogenic inductive agents. Immunofluorescence studies verify the expression of leptin, a hormone typically expressed by adipocytes in adult phase.
The mature adipose cells were maintained in a culture with DMEM, 10% FBS, 1 AF for two weeks, under continuous stimulation of 5′ Azacytidine at molar concentrations of 0.1 μM, 1 μM, 10 M, 100 μM, 125 μM, 150 μM, 175 μM, 250 μM.

With `Nc1ncn([C@@H]2O[C@H](CO)[C@@H](O)[C@H]2O)c(=O)n1` [5-Azacytidine, 5′ Aza 2′ cytidine], the apoptotic phenomena with adipocytes (125 μM, 25 hours after treatment) is listed as 15%; with adipocytes (125 μM, 48 hours after treatment), 15%; in the data set on adipocytes (125 μM, 72 hours after treatment) it was 10%; in the data set with adipocytes (150 μM, 25 hours after treatment), 22%; in the data set on adipocytes (150 μM, 48 hours after treatment) it was 28%; with adipocytes (150 μM, 72 hours after treatment), 10%. The apoptotic phenomena worked out at 38% with adipocytes (175 μM, 25 hours after treatment); 41% in the data set on adipocytes (175 μM, 48 hours after treatment); 10% with adipocytes (175 μM, 72 hours after treatment). In addition, the “expression of the differentiative late-phase adipogenic markers” value in data set [1] was “a reduction in the expression”. The “cell proliferation by incorporated BrdU” value in the data set on adipose cells is “Cell proliferation is observed”. Also, the “colony growth process and sensitivity to LIF” value in the data set on embryoid bodies is “re-established the colony growth process typical of stem cells and the sensitivity to LEUKEMIA INHIBITORY FACTOR (LIF)”. The “apoptosis of treated cultures (FIG. 7)” value in the data set with mature adipose cells (250 μM) is “a high apoptotic degree is observed”. In the data set with mature adipose cells (doses ≦0.1 μM), the “cell damage and/or cell proliferation (FIG. 8)” value is “no signs of cell damage and/or cell proliferation”. Further, the “morphology of the plate” value in the data set with mature adipose cells (mainly at 1-10 μM and higher than 100 μM, 10 days of treatment, preliminary results) was “a change in the morphology of the plate”.
